Data reported in article PMC7925099, “Identification of an Antiretroviral Small Molecule That Appears To Be a Host-Targeting Inhibitor of HIV-1 Assembly” (Journal of Virology, 2021).
Like-named read-outs stand apart in the source and are kept apart here.

How the values were obtained:
[1] = test system: HIV-1 NL4-3 RLuc; test: MT-2 spreading infection assay (inhibition of HIV-1 replication); details: for SI (CC50/EC50): from average values
Protocol: Inhibition of HIV-1 viral replication was assayed in a spreading infection using MT-2 cells and NL4-3 RLuc reporter virus. For dose-response curves, compounds were initially diluted with DMSO to 100-fold the starting concentration in a 96-well plate and subjected to a series of 3-fold dilutions in DMSO for a total of eight or nine dilutions. If a single compound concentration was tested, the compound was diluted to 100-fold the desired concentration in DMSO. Compounds were then diluted 50-fold with infection media prepared by diluting NL4-3 RLuc virus stock to 400 IU/100 μl with complete RPMI. Then, 100 μl of 50-fold-diluted compound was transferred to 20,000 MT-2 cells that were preseeded in 96-well plates in 100 μl of complete RPMI for a final volume of 200 μl, followed by incubation at 37°C for 96 h. The final MOI in infected plates was 0.02, and the final DMSO concentration in all wells was 1%. All assays were run with three replicates. For each replicate, one well received DMSO only, and one well received medium only for normalization and background correction. […] Plates were read on a luminescence plate reader (Synergy H1; BioTek Instruments, Inc.).
(§3) EC50 and CC50 values were determined in Excel using four-parameter logistic regression analysis of dose-response data generated from the viral inhibition or cytotoxicity assays, respectively. […] Average EC50 and CC50 values were calculated using the geometric mean and average values were reported with the geometric standard deviation (GSD).

[2] = test system: MT-2 cells
Protocol: (§4) For each viral inhibition assay, a cytotoxicity assay was performed in parallel on uninfected cells by adding 1/10 volume of alamarBlue (Thermo Fisher, Waltham, MA; DAL1199) to the plates, followed by thorough mixing. AlamarBlue-treated plates were incubated for 2 to 3 h at 37°C (the timing was optimized for the linear signal), mixed well, and read using a fluorescence plate reader with 560 nm and 590 nm as the excitation and emission settings, respectively (Synergy H1; BioTek Instruments, Inc.).
as §3

[3] = test system: DDX6 and XRN1; test: DDX6-XRN1 proximity ligation assay in compound-treated cells; assay type: cell-based, human; details: 10 μM; 16 h; 293T-HIV
Protocol: (§1) For each treatment, one-half of a Grace Biolabs Culture Well silicone chamber (Millipore-Sigma; GBL103380) was attached to a cover glass (Carl Zeiss, Oberkochen, Germany; catalog no. 474030-9000-000) to create four chambers on the cover glass. Each chambered cover glass was placed into a well of a 6-well plate, and the chambers were coated with poly-L-lysine and allowed to dry overnight. The next day, ∼4 × 10^3 293T/17 or 293T-HIV cells were seeded into each chamber, followed by incubation at 37°C for 5 to 6 h. After the cells adhered, they were treated with compound or DMSO. […] For quantification, 5 to 10 fields, each containing at least three IF-positive cells, were chosen at random and imaged using identical exposure times for each channel (100 to 150 ms for the PLA channel in red; 0.5 to 1 s for the IF channel in green, depending on the IF primary antibody; and 20 ms for the DAPI channel in blue). […] The ROIs identified in the IF channel were applied to a maximum intensity z projection of the PLA channel, and PLA spots within the ROI were counted using the find maxima function in Fiji, with noise threshold optimized to identify only PLA spots. Nuclei from each field were counted manually to determine the number of cells. […]

[4] = test system: HIV-1 Gag; test: Biotin-Gag proximity ligation assay; assay type: cell-based; details: for biotin-Gag PLA spots/cell: 16 h
Protocol: (§2) For each treatment, one-half of a Grace Biolabs Culture Well silicone chamber (Millipore-Sigma; GBL103380) was attached to a cover glass (Carl Zeiss, Oberkochen, Germany; catalog no. 474030-9000-000) to create four chambers on the cover glass. Each chambered cover glass was placed into a well of a 6-well plate, and the chambers were coated with poly-L-lysine and allowed to dry overnight. The next day, ∼4 × 10^3 293T/17 or 293T-HIV cells were seeded into each chamber, followed by incubation at 37°C for 5 to 6 h. After the cells adhered, they were treated with compound or DMSO. At 16 h posttreatment, the cells were fixed for 15 min in 4% paraformaldehyde in PBS (pH 7.4), permeabilized in 0.5% (wt/vol) saponin in PBS (pH 7.4) for 10 min, and blocked in Duolink blocking solution (Millipore-Sigma) at 37°C for 30 min. The cells were incubated in primary antibodies using the following concentrations: for the Gag-biotin PLA, mouse αGag p24 was used at 0.2 μg/ml, and rabbit αbiotin was used at 4 μg/ml; for the biotin-ABCE1 PLA, rabbit αABCE1 was used at 0.3 μg/ml, and mouse αbiotin was used at 0.7 μg/ml; for the biotin-DDX6 PLA, rabbit αDDX6 was used at 0.5 μg/ml and mouse αbiotin was used at 0.3 μg/ml; for the ABCE1-DDX6 PLA, rabbit αABCE1 was used at 0.3 μg/ml, and mouse αDDX6 was used at 0.3 μg/ml; for the biotin-G3BP1 PLA, rabbit αG3BP1 was used at 0.025 μg/ml, and mouse αbiotin was used at 0.2 μg/ml; for the TIAR-G3BP1 PLA, rabbit αG3BP1 was used at 0.025 μg/ml, and mouse αTIAR was used at 0.025 μg/ml; for the biotin-XRN1 PLA, rabbit α XRN1 was used at 0.5 μg/ml, and mouse αbiotin was used at 0.2 μg/ml; and for the DDX6-XRN1 PLA, rabbit αXRN1 was used at 0.5 μg/ml, and mouse αDDX6 was used at 0.5 μg/ml. For the NI control PLA experiments, NI control antibodies from the relevant species were used at the same concentration as the primary antibody they replaced. Primary incubation was followed by incubation with Duolink reagents (Millipore-Sigma): oligonucleotide-linked secondary antibody, ligation mix, and red amplification/detection mix, with washes in between, in accordance with the Duolink protocol. For concurrent IF analysis following the final 1× PLA buffer B washes, cells were incubated for 30 min at room temperature with 1:1,000 Alexa Fluor 488-anti-mouse secondary antibody. Cover glasses were mounted using Duolink in situ mounting medium with DAPI (4′,6′-diamidino-2-phenylindole; Millipore-Sigma), sealed to the glass slides with clear nail polish, allowed to dry for 24 h at room temperature, and stored at −20°C. Imaging was performed with a Zeiss Axio Observer.Z1/7 deconvolution microscope using Zeiss Plan-Apochromat 63×/aperture 1.4 objective with oil immersion, with Zen 2.6 (blue edition) software. For quantification, 5 to 10 fields, each containing at least three IF-positive cells, were chosen at random and imaged using identical exposure times for each channel (100 to 150 ms for the PLA channel in red; 0.5 to 1 s for the IF channel in green, depending on the IF primary antibody; and 20 ms for the DAPI channel in blue). Images were captured as a Z-stack of 80 to 90 0.24-μm slices that included the entire cell body and 5 μm above and below the cell (∼20 μm total). To determine the number of PLA spots per cell, image stacks were processed as follows in Fiji ([96]). First, an in-focus slice from the IF channel was selected using the Find Focused Slices plugin within ImageJ (Q. Tseng, 2020 [https://sites.google.com/site/qingzongtseng/find-focus]), and thresholding was used to generate regions of interest (ROI) that contained only cells. The ROIs identified in the IF channel were applied to a maximum intensity z projection of the PLA channel, and PLA spots within the ROI were counted using the find maxima function in Fiji, with noise threshold optimized to identify only PLA spots. Nuclei from each field were counted manually to determine the number of cells. […]

[5] = test system: TIAR and G3BP1; test: TIAR-G3BP1 proximity ligation assay in compound-treated cells; assay type: cell-based, human; details: 10 μM; 16 h; 293T-HIV
Protocol: as §1

[6] = target: T1, ABCE1 (Homo sapiens, UniProt P61221); test: Biotin-ABCE1 proximity ligation assay; assay type: cell-based; details: for biotin-ABCE1 PLA spots/cell: 16 h
T1 construct: endogenous in cells; host or cells: 293T/17 and 293T-HIV cells
Protocol: as §2

[7] = target: T2, G3BP1 (Homo sapiens, UniProt Q13283); test: Biotin-G3BP1 proximity ligation assay; assay type: cell-based; details: 293T-HIV; for PLA spots/cell (biotin-G3BP1 PLA): 10 μM, 16 h
T2 construct: endogenous in cells; host or cells: 293T-HIV cells
T2 sequence (Q13283 whole entry): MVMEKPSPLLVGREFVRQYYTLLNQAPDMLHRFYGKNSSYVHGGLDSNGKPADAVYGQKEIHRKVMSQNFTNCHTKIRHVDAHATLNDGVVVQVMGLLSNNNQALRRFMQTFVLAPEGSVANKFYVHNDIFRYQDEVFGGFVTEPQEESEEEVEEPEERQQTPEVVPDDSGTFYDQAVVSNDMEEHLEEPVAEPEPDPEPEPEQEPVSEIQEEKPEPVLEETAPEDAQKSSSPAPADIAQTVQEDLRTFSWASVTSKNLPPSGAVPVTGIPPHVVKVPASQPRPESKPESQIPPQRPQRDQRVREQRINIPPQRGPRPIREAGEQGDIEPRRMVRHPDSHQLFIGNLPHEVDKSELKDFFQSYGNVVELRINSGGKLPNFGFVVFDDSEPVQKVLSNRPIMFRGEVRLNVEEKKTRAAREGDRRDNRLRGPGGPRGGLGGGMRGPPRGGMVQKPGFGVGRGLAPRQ
Protocol: as §1, with “DMSO. At 16 h posttreatment, the cells were fixed for 15 min in 4% paraformaldehyde in PBS (pH 7.4), permeabilized in 0.5% (wt/vol) saponin in PBS (pH 7.4) for 10 min, and blocked in Duolink blocking solution (Millipore-Sigma) at 37°C for 30 min.” for “DMSO.”

[8] = target: T3, XRN1 (Homo sapiens, UniProt Q8IZH2); test: Biotin-XRN1 proximity ligation assay; assay type: cell-based; details: 293T-HIV; for PLA spots/cell (biotin-XRN1 PLA): 10 μM, 16 h
T3 construct: endogenous in cells; host or cells: 293T-HIV cells
T3 sequence (Q8IZH2 whole entry): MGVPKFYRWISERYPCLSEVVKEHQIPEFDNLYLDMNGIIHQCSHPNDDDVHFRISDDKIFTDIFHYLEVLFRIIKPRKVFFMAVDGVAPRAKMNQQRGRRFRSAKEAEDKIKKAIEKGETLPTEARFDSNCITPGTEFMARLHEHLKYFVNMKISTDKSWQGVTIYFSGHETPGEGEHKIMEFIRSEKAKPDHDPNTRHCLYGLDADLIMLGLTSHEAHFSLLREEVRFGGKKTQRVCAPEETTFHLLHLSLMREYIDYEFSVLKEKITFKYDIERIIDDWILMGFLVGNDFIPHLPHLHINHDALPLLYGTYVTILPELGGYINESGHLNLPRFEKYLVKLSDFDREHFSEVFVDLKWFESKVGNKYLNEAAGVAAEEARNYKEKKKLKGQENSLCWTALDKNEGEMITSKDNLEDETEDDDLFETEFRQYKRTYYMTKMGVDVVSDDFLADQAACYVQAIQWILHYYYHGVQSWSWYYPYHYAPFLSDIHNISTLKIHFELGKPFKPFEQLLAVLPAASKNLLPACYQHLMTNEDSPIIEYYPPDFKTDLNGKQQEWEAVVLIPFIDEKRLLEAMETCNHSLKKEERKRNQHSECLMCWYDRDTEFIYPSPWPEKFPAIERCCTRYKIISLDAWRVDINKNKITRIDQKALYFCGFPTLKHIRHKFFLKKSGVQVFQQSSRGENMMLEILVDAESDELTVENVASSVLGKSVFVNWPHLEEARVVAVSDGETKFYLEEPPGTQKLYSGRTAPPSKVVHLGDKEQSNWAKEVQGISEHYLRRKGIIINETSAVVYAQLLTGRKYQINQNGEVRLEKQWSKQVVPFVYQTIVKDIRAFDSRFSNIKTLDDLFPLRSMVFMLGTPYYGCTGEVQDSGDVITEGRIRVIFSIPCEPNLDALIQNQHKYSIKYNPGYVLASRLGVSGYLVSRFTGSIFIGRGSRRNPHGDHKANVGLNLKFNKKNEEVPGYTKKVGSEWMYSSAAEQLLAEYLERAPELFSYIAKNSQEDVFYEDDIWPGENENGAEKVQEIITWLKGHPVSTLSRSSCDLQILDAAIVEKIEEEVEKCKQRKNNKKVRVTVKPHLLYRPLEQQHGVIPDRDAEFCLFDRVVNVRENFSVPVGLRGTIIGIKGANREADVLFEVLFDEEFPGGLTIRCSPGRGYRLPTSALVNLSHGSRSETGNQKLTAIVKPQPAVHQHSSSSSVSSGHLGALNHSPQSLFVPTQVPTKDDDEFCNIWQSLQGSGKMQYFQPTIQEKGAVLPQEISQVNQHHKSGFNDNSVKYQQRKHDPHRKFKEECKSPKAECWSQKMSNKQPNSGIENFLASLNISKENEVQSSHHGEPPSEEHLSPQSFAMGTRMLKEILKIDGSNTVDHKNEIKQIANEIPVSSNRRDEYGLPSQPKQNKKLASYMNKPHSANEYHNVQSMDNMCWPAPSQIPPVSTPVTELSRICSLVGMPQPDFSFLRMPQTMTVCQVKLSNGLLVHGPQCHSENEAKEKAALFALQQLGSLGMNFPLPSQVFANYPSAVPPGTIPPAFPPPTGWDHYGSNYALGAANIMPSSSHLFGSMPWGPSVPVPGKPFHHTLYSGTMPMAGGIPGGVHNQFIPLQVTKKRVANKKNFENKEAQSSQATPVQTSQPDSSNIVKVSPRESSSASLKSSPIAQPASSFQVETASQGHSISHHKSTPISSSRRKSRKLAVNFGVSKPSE
Protocol: as §1, with “DMSO. At 16 h posttreatment, the cells were fixed for 15 min in 4% paraformaldehyde in PBS (pH 7.4), permeabilized in 0.5% (wt/vol) saponin in PBS (pH 7.4) for 10 min, and blocked in Duolink blocking solution (Millipore-Sigma) at 37°C for 30 min.” for “DMSO.”

[9] = in vitro; details: human
Protocol: as §4, §3

[10] = target: T4, DDX6 (Homo sapiens, UniProt P26196); test: Biotin-DDX6 proximity ligation assay; assay type: cell-based; details: for biotin-DDX6 PLA spots/cell: 16 h
T4 construct: endogenous in cells; host or cells: 293T/17 and 293T-HIV cells
T4 sequence (P26196 1-483): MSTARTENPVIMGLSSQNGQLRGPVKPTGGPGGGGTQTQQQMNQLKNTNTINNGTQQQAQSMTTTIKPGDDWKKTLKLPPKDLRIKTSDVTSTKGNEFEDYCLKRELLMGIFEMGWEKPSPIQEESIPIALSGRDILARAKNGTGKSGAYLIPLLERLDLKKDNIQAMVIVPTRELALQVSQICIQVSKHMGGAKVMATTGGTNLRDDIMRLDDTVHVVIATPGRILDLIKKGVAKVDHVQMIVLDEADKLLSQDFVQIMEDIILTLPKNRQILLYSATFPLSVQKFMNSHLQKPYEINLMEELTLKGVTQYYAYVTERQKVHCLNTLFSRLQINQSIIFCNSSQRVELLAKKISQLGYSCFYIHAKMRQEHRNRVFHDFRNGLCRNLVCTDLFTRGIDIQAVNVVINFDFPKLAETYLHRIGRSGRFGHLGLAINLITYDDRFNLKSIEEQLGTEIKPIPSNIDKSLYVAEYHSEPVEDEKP
Protocol: as §2

[11] = test system: HIV-1 NL4-3; assay type: cell-based; details: MT-2 cells, 37 weeks of selection
[12] = Human immunodeficiency virus 1, NL43, MT2

## COc1ccc(/C=C/C2NCCc3cc(OCc4ccccc4)c(OC)cc32)c(C)c1 (centres unmarked) [PAV-218]
[1]; MT-2 cells
  SI (CC50/EC50): 66
[2]
  CC50 (μM): 9.7 ×/÷ 1.2 μM

## N#CCC(NC(=O)CCOCCOCCNC(=O)CCCC[C@@H]1SCC2NC(=O)NC21)C(=O)NCCCCOc1ccccc1 (some centres unmarked) [PAV-543, reference compound]
[3]
  PLA spots/cell (DDX6-XRN1 PLA): 77.4
[4]; 10 μM, 293T-HIV (HIV +)
  biotin-Gag PLA spots/cell: 9.3
[5]
  PLA spots/cell (TIAR-G3BP1 PLA): 51.5
[6]; 10 μM, 293T-HIV (HIV +)
  biotin-ABCE1 PLA spots/cell: 4.5
[7]
  PLA spots/cell (biotin-G3BP1 PLA): 1.6
[8]
  PLA spots/cell (biotin-XRN1 PLA): 3.8
[1]; Human immunodeficiency virus 1, NL43, T-cell, read-out: EC50MT-2
  EC50: > 100000 nM
[9]; CC50
  CC50: > 100 µM
[10]; 10 μM, 293T-HIV (HIV +)
  biotin-DDX6 PLA spots/cell: 12.6

## COc1cc2c(cc1OCc1ccccc1)CCNC2/C=C/c1ccccc1 (centres unmarked) [PAV-492]
[1]; [12]
  EC50: 1540 nM
[1]; MT-2 cells
  SI (CC50/EC50): > 6
[9]; CC50 (μM)
  CC50: > 10 µM

## COc1cc2c(cc1OCc1ccccc1)CCNC2/C=C/c1cccc(OCc2ccccc2)c1 (centres unmarked) [PAV-494]
[1]; [12]
  EC50: 244 nM
[1]; MT-2 cells
  SI (CC50/EC50): 17
[9]; CC50 (μM)
  CC50: 4.1 µM

## COc1ccc(/C=C/C2NCCc3cc(OCc4ccccc4)c(OC)cc32)cc1OCc1ccccc1 (centres unmarked) [PAV-220]
[1]; [12]
  EC50: 163 nM
[1]; MT-2 cells
  SI (CC50/EC50): 23
[9]; CC50 (μM)
  CC50: 3.8 µM

## COc1cc2c(cc1OCc1ccccc1)CCNC2/C=C/c1ccccc1C (centres unmarked) [PAV-245]
[1]; [12]
  EC50: 755 nM
[1]; MT-2 cells
  SI (CC50/EC50): 4.8
[9]; CC50 (μM)
  CC50: 3.6 µM

## Cc1c(O)cccc1C(=O)N[C@@H](CSc1ccccc1)[C@H](O)CN1C[C@H]2CCCC[C@H]2C[C@H]1C(=O)NC(C)(C)C [nelfinavir, reference compound]
[11]
  resistance level reached: compound concentration allowing virus replication, fold higher than the EC50: 16 fold

## COc1cc(C)c(C=CC2NCCc3cc(OCc4ccccc4)c(OC)cc32)cc1OCCCCNC(=O)C(CC1(C)N=N1)NC(=O)CCOCCOCCNC(=O)CCCCC1SCC2NC(=O)NC21 (centres unmarked) [PAV-818]
[3]
  PLA spots/cell (DDX6-XRN1 PLA): 35.2
[4]; 5 μM, 293T-HIV (HIV +)
  biotin-Gag PLA spots/cell: 32.6
[4]; 10 μM, 293T-HIV (HIV +)
  biotin-Gag PLA spots/cell: 51.5
[4]; 10 μM, uninfected 293T (HIV −)
  biotin-Gag PLA spots/cell: 7.1
[4]; 20 μM, 293T-HIV (HIV +)
  biotin-Gag PLA spots/cell: 111.8
[4]; both at 10 μM, 293T-HIV
  fold more biotin-Gag PLA spots than with PAV-543: 5.5 fold
[5]
  PLA spots/cell (TIAR-G3BP1 PLA): 35.0
[6]; 5 μM, 293T-HIV (HIV +)
  biotin-ABCE1 PLA spots/cell: 42.0
[6]; 10 μM, 293T-HIV (HIV +)
  biotin-ABCE1 PLA spots/cell: 64.2
[6]; 10 μM, uninfected 293T (HIV −)
  biotin-ABCE1 PLA spots/cell: 72.9
[6]; 20 μM, 293T-HIV (HIV +)
  biotin-ABCE1 PLA spots/cell: 104.7
[6]; both at 10 μM, 293T-HIV
  fold more biotin-ABCE1 PLA spots than with PAV-543: 14.3 fold
[7]
  PLA spots/cell (biotin-G3BP1 PLA): 6.3
[7]; PLA
  colocalization with the stress granule protein G3BP1: does not colocalize
[8]
  PLA spots/cell (biotin-XRN1 PLA): 5.3
[8]; PLA
  colocalization with the P-body marker XRN1: does not colocalize
[1]; Human immunodeficiency virus 1, NL43, T-cell, 96 h, read-out: EC50 for inhibition of HIV-1 replication
  EC50: 951 nM
[1]; MT-2 cells, from the shown dose-response curve
  selectivity index (CC50/EC50): ~32
[9]; CC50
  CC50: ~30 µM
[10]; 5 μM, 293T-HIV (HIV +)
  biotin-DDX6 PLA spots/cell: 47.4
[10]; 10 μM, 293T-HIV (HIV +)
  biotin-DDX6 PLA spots/cell: 65.1
[10]; 10 μM, uninfected 293T (HIV −)
  biotin-DDX6 PLA spots/cell: 58.0
[10]; 20 μM, 293T-HIV (HIV +)
  biotin-DDX6 PLA spots/cell: 82.9
[10]; 293T-HIV
  fold more biotin-DDX6 PLA spots than in PAV-543-treated or DMSO-treated cells: ~5.1 fold

## COc1ccc(/C=C/C2NCCc3cc(OCc4ccccc4)c(OC)cc32)cc1 (centres unmarked) [PAV-493]
[1]; MT-2 cells
  SI (CC50/EC50): 37
[9]; CC50 (μM)
  CC50: 21 µM
